“Also recorded” adds a separate entry of the source.
Test system: bone marrow derived macrophages (BMDMs)
Test: LPS-induced IL-1β secretion in BMDMs treated with IKK2 inhibitors (ELISA)
Assay type: cell-based, mouse
Protocol: Bone marrow was isolated from the tibiae and femurs of one WT and one Ripk1^D138N/D138N mouse (6-7 week old). Bone marrow from one leg of each mouse was immediately frozen Bone marrow cells from the other leg were spun down at 1200 rpm, for 5 min and seeded in 15 cm^2 non-treated cell culture plates in 20 ml of medium containing 10 ng/ml M-CSF. Cells were allowed to differentiate for six days and subsequently adherent BMDMs were lifted, counted and seeded at a density of 2×10^5 cells/well in a 48 well plate. The day after, cells were pretreated with different concentrations of the IKK2 inhibitors for 30 min before stimulation with 100 ng/ml LPS in a total volume of 250 μl. Each experimental condition was assayed in triplicate. 20-24 h later supernatants were removed, cleared from floating cells and were frozen until cytokine measurements. IL-1β concentration was determined with a specific ELISA (eBioscience) following the manufacturer's instructions.
For the experiment with Nec1 the frozen bone marrow cells were used. After thawing, macrophages were differentiated as described above for fresh bone marrow cells. Necrostatin-1 (Nec-1) was added together with the IKK2 inhibitors during the 30 min pretreatment BMDMs were stimulated with LPS for 20-24 h and supernatants were kept for ELISA measurements. […]

| SMILES | IL-1β secretion upon LPS stimulation (WT BMDMs pretreated 30 min with IKK2 inhibitor, then 100 ng/ml LPS for 20-24 h, IL-1β ELISA of supernatant) | amount of secreted IL-1β (LPS-induced, in BMDMs treated with IKK2 inhibitors) (Nec1 added together with IKK2 inhibitors during 30 min pretreatment, 100 ng/ml LPS for 20-24 h, FIG. 1B) |
| --- | --- | --- |
| NC(=O)Nc1sc(-c2ccc(F)cc2)cc1C(N)=O [TPCA-1] | greater potency | – |
| CN1C(=O)C(Cc2c[nH]c3ccccc23)NC1=S (centres unmarked) [Necrostatin-1, 5-(1H-indo1-3-ylmethyl)-3-methyl-2-thioxo-4-imidazolidinone] | – | strongly diminished the LPS-induced production of IL-1β; also recorded: strongly reduced the amount of secreted IL-1β |

— US12678447B2, “Combinations of RIPK1- and IKK-inhibitors for the prevention or treatment of immune diseases” (Universität zu Köln, priority 2017, dated 2026)
